Assay results as given in patent US12139488B2, “Pyrido[3,2-d]pyrimidine compounds uses thereof for treating a proliferative disease” (Universite de Montreal, priority 2021, dated 2024).
Where two headings read alike, the source gives them in different places.

Columns and labels:
CRAF = CRAF (Homo sapiens, UniProt P04049); test: CRAF kinase activity assay (ADP-Glo); format: biochemical
Procedure: (§1) Compound preparation: solid samples of each substances in 1 dram vials were suspended in DMSO (Fisher Scientific) at a stock concentration of 20 mM. Stocks were kept at −20° C. and protected from light.
(§2) In vitro enzymatic reactions were used for evaluating compounds intrinsic activity against BRAF, CRAF and ARAF. […] Separate reactions were performed with the MEK1 substrate and ATP as a blank control.
(§3) For compound treatment, 5 μL/well of test substance solution are placed in a 384-well proxyplate (Perkin Elmer) and mixed with 2× concentrated kinase reactions. The dilution series is selected so that nine concentrations cover a range from 100 nM to 0.01 nM. […] The final concentration of DMSO in the assay is set at 0.05%.
(§4) BRAF and CRAF kinase reactions were carried out for a total of 2 hours at 30° C. and then stopped by ½ dilution in ADP-Glo Reagent (cat #V9102; Promega; part V912C). Reactions were then incubated for 1h at room temperature before addition of one volume of Kinase Detection Reagent (cat #V9102; Promega; part V917A). Plates were then equilibrated at room temperature for 30 minutes before detection of luminescence on a Synergy Neo2 plate reader (Biotek). The effect of each compound dilution on BRAF and CRAF kinase activity was expressed as % inhibition and calculated as follows.
(§5) IC50 values were obtained by plotting the kinase inhibition values and fitting the dose-activity curves using a log(agonist) versus response-variable slope (four parameters) function using either GraphPadPrism (V7.0) or Dotmatics Screening Ultra platform.

BRAF = BRAF (Homo sapiens (Human), UniProt P15056); test: BRAF kinase activity assay (ADP-Glo); format: biochemical
Procedure: as §1, §2, §3, §4, §5

[1] = test system: pERK in HCT-116 cells (KRAS G13D); test: Phospho-ERK inhibition (AlphaLISA SureFire Ultra p-ERK 1/2), HCT116; format: cell-based, human; details: for HCT116 pERK % Ymin (lowest value of the IC50 curve): Ymin above −20% = minimal or no paradoxical activation
Outline: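 Cells in RPMI-1640 with 5% FBS were plated overnight, then exposed for 1 h to ten-point dilutions (typically 10 μM to 0.33 nM; 0.5% DMSO). Lysates were read by AlphaLISA SureFire Ultra for p-ERK1/2 Thr202/Tyr204; % inhibition used trametinib background and DMSO controls, with IC50 from four-parameter fits.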

[2] = read-out: Kinase IC50 (nM) CRAF
[3] = read-out: Kinase IC50 (nM) BRAF
[4] = HCT116 cells, class symbol before the bracket
[5] = § symbols, read-out: Kinase IC50
[6] = first kinase column (c6), * symbols, read-out: Kinase IC50
[7] = Homo sapiens, HCT-116, HCT116 cells, class symbol
[8] = Table 5, read-out: Kinase IC50 (nM) CRAF
[9] = Table 5, read-out: Kinase IC50 (nM) BRAF
[10] = lowest value of the curve, HCT116, Table 5
[11] = CRAF, read-out: Kinase IC50 (nM), CRAF biochemical kinase assay
[12] = BRAF, read-out: Kinase IC50 (nM), BRAF biochemical kinase assay

Chain of CRAF (P04049 whole entry, looked up): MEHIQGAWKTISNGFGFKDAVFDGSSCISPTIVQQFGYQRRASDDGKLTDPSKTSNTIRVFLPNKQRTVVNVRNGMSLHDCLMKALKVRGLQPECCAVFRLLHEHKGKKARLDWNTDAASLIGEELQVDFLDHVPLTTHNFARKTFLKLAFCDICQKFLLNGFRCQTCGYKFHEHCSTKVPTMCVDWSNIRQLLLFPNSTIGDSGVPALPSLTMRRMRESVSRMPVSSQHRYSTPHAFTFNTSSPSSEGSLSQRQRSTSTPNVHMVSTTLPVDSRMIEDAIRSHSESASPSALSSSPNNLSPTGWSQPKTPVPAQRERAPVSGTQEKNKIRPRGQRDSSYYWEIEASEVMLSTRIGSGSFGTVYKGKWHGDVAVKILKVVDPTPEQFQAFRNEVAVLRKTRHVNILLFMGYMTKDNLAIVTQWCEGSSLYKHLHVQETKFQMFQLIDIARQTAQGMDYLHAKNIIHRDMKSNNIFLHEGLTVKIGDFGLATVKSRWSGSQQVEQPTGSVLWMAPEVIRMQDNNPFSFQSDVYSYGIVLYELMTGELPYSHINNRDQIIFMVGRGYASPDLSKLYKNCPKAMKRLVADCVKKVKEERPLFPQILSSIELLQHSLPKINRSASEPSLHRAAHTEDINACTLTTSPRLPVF
Chain of BRAF (P15056 whole entry): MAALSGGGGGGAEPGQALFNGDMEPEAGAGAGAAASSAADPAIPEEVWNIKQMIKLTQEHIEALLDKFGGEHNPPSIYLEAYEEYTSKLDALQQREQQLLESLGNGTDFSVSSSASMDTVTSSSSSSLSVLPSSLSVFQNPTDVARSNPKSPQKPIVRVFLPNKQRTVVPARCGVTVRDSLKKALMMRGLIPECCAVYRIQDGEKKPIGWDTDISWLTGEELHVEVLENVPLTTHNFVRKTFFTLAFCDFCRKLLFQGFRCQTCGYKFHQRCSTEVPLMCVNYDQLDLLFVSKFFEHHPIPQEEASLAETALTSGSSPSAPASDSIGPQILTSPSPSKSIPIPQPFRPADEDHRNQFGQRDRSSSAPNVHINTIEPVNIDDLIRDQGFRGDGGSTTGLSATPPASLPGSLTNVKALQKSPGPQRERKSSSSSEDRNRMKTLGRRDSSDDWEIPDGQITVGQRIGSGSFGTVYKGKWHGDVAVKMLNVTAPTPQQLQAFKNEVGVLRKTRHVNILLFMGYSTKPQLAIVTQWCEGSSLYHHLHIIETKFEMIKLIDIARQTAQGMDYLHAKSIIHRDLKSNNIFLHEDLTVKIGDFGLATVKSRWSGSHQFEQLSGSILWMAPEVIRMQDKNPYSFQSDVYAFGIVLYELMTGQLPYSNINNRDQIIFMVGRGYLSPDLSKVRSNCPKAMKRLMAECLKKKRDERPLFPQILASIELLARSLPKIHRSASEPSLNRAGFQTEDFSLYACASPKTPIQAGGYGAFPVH

SMILES	IC50 (CRAF; [2]) [nM]	IC50 (BRAF; [3]) [nM]	HCT116 pERK Ymin % ([1]; HCT116 cells, Ymin in brackets) [%]	IC50 [1, 4] [nM]	IC50 (CRAF; [11]) [nM]	IC50 (BRAF; [12]) [nM]	IC50 ([1]; HCT116 cells) [nM]	HCT116 pERK % Ymin (lowest value of the IC50 curve) ([1]; HCT116 cells) [%]	other results
NCC(=O)c1cn(-c2ccc3ncnc(Nc4c(F)ccc(NS(=O)(=O)c5ccccc5Cl)c4F)c3n2)c2ccccc12 [Example 223]	> 50	1 to 10	−9	1000 to 10000					
Cc1scc(S(=O)(=O)Nc2ccc(F)c(Nc3ncnc4ccc(-n5cnc6ccccc65)nc34)c2F)c1C [Example 320]	> 50	1 to 10							IC50 ([1]; HCT116 cells, 1 h treatment): 1000 to 10000 nM; HCT116 pERK Ymin % ([1]; lowest % inhibition value of the IC50 curve, HCT116): −5%
Cc1c(F)cccc1S(=O)(=O)Nc1ccc(F)c(Nc2ncnc3ccc(-n4cnc5c(CO)cccc54)nc23)c1F [Example 345, N-[2,4-difluoro-3-[[6-[4-(hydroxymethyl)benzimidazol-1-yl]pyrido[3,2-d]pyrimidin-4-yl]amino]phenyl]-3-fluoro-2-methyl-benzenesulfonamide]									IC50 (CRAF; [5]): < 10 nM; IC50 (BRAF; [6]): 1 to 10 nM; IC50 [1, 7]: < 500 nM
O=S(=O)(Nc1cc(F)c(F)c(Nc2ncnc3ccc(-n4nnc5ccccc54)nc23)c1F)c1cccc(Cl)c1Cl [Example 649]									IC50 (CRAF; [8]): < 10 nM; IC50 (BRAF; [9]): 1 to 10 nM; IC50 ([1]; HCT116 cells, Table 5): < 500 nM; HCT116 pERK Ymin % [1, 10]: 3%
O=S(=O)(Nc1ccc(F)c(Nc2ncnc3ccc(-n4cnc5c(C6(CO)CC6)cccc54)nc23)c1F)c1cccc(Cl)c1Cl [Example 612]					< 10	1 to 10	< 500	−10	
N#CC1(c2cccc3c2nnn3-c2ccc3ncnc(Nc4c(F)ccc(NS(=O)(=O)c5cccc(Cl)c5Cl)c4F)c3n2)CC1 [Example 610]					< 10	1 to 10	< 500	−2	
CC(=O)N1CCCc2nn(-c3ccc4ncnc(Nc5c(F)ccc(NS(=O)(=O)c6cccc(Cl)c6Cl)c5F)c4n3)cc21 [Example 486]									IC50 (CRAF; [5]): < 10 nM; IC50 (BRAF; [6]): 1 to 10 nM; IC50 [1, 7]: 500 to 1000 nM
Cc1ncc(-c2ccc3ncnc(Nc4c(F)ccc(NS(=O)(=O)c5cccc(Cl)c5Cl)c4F)c3n2)[nH]1 [Example 595]					10 to 50	1 to 10	1000 to 10000	−16	
O=S(=O)(Nc1ccc(F)c(Nc2ncnc3ccc(-n4cnc5c(C6CCNCC6)cccc54)nc23)c1F)c1cccc(Cl)c1Cl [Example 662, 2,3-dichloro-N-[2,4-difluoro-3-[[6-[4-(4-piperidyl)benzimidazol-1-yl]pyrido[3,2-d]pyrimidin-4-yl]amino]phenyl]benzenesulfonamide]						< 1		−6	IC50 (CRAF): < 10 nM; IC50 ([1]; Homo sapiens, HCT-116, HCT116 cells): 1000 to 10000 nM
CCC1(O)CCN(c2nccc3c2ncn3-c2ccc3ncnc(Nc4c(F)ccc(NS(=O)(=O)c5cccc(Cl)c5Cl)c4F)c3n2)CC1 [Example 691]					10 to 50	1 to 10	< 500	6	
Cc1c(F)cccc1S(=O)(=O)Nc1ccc(F)c(Nc2ncnc3ccc(-n4ncc5c4CN(C)CC5)nc23)c1F [Example 664]					> 50	1 to 10	1000 to 10000	−15	
O=S(=O)(Nc1ccc(F)c(Nc2ncnc3ccc(-n4cnc5c(-c6cccnc6)cccc54)nc23)c1F)c1ccccc1Cl [Example 243]	< 10	1 to 10	−3.9	< 500					
CC(C)NCc1cccc2c1ncn2-c1ccc2ncnc(Nc3c(F)ccc(NS(=O)(=O)c4ccccc4Cl)c3F)c2n1 [Ex 222]	10 to 50	1 to 10	−11	1000 to 10000					
O=S(=O)(Nc1ccc(F)c(Nc2ncnc3ccc(-n4cnc5c(CN6CCC(O)CC6)cccc54)nc23)c1F)c1ccccc1Cl [Ex 229]	10 to 50	< 1	−7	1000 to 10000					
CN1CCN(c2ncc(-c3ccc4ncnc(Nc5c(F)ccc(NS(=O)(=O)c6cccc(Cl)c6Cl)c5F)c4n3)s2)CC1 [Example 613]					10 to 50	1 to 10	500 to 1000	−3	
Cc1c(F)cccc1S(=O)(=O)Nc1ccc(F)c(Nc2ncnc3ccc(-n4cnc(/C=C/C#N)c4)nc23)c1F [Example 343, (E)-N-(3-((6-(4-(2-cyanovinyl)-1H-imidazol-1-yl)pyrido[3,2-d]pyrimidin-4-yl)amino)-2,4-difluorophenyl)-3-fluoro-2-methylbenzenesulfonamide]									IC50 (CRAF; [5]): 10 to 50 nM; IC50 (BRAF; [6]): 1 to 10 nM; IC50 [1, 7]: < 500 nM

SMILES	IC50 (CRAF; [2]) [nM]	IC50 (BRAF; [3]) [nM]	HCT116 pERK Ymin % ([1]; HCT116 cells, Ymin in brackets) [%]	IC50 [1, 4] [nM]	IC50 (CRAF; [11]) [nM]	IC50 (BRAF; [12]) [nM]	IC50 ([1]; HCT116 cells) [nM]	HCT116 pERK % Ymin (lowest value of the IC50 curve) ([1]; HCT116 cells) [%]	other results
Cc1c(Cl)cccc1S(=O)(=O)Nc1ccc(F)c(Nc2ncnc3ccc(-n4cnc5c(O)cccc54)nc23)c1F [Example 116]	< 10	< 1	−18	500 to 1000					
CN(C)c1nnc(-c2nn(-c3ccc4ncnc(Nc5c(F)ccc(NS(=O)(=O)c6cccc(Cl)c6Cl)c5F)c4n3)c3ccccc23)o1 [Example 209]	10 to 50	1 to 10	−6	10000 to 30000					
O=S(=O)(Nc1ccc(F)c(Nc2ncnc3ccc(-n4nc(-c5ncc[nH]5)c5ccccc54)nc23)c1F)c1ccccc1Cl [Example 213]	> 50	1 to 10	−8	1000 to 10000					
O=S(=O)(Nc1ccc(F)c(Nc2ncnc3ccc(-c4cnc5n4CCCC5)nc23)c1F)c1cccc(Cl)c1Cl [Example 561]					< 10	1 to 10	< 500	−13	
O=S(=O)(Nc1ccc(F)c(Nc2ncnc3ccc(-n4cnc5c(CN6CCCC6)cccc54)nc23)c1F)c1ccccc1Cl [Ex 219]	10 to 50	1 to 10	0	1000 to 10000					
Cc1cn(-c2ccc3ncnc(Nc4c(F)ccc(NS(=O)(=O)c5cccc(Cl)c5Cl)c4F)c3n2)nn1 [Example 684]					< 10	< 1	< 500	−14	
CNC(=O)c1cn(-c2ccc3ncnc(Nc4c(F)ccc(NS(=O)(=O)c5ccccc5Cl)c4F)c3n2)c2ccccc12 [Ex 86]	10 to 50	1 to 10	−10	1000 to 10000					
O=S(=O)(Nc1ccc(F)c(Nc2ncnc3ccc(-n4cnc5c(N6CCNCC6)cccc54)nc23)c1F)c1cccc(Cl)c1Cl [Example 634]					< 10	< 1	< 500	−2	
CN(C)C(=O)c1cn(-c2ccc3ncnc(Nc4c(F)ccc(NS(=O)(=O)c5ccccc5Cl)c4F)c3n2)c2ccccc12 [Ex 87]	10 to 50	< 1	−4.4	< 500					
O=S(=O)(Nc1ccc(F)c(Nc2ncnc3ccc(-n4cnc5c(C6CCN(CCO)CC6)cccc54)nc23)c1F)c1cccc(Cl)c1Cl [Example 681]					< 10	< 1	< 500	−9	
O=S(=O)(Nc1ccc(F)c(Nc2ncnc3ccc(-n4cc(-c5ncc[nH]5)c5ccccc54)nc23)c1F)c1cccc(Cl)c1Cl [Example 207]	10 to 50	1 to 10	−11	1000 to 10000					
O=S(=O)(Nc1cccc(Nc2ncnc3ccc(-n4cnc5ccccc54)nc23)c1F)c1cccc(Cl)c1Cl [Example 646]									IC50 (CRAF; [8]): 10 to 50 nM; IC50 (BRAF; [9]): 1 to 10 nM; IC50 ([1]; HCT116 cells, Table 5): < 500 nM; HCT116 pERK Ymin % [1, 10]: −3%
O=S(=O)(Nc1ccc(F)c(Nc2ncnc3ccc(-n4cnc5nccnc54)nc23)c1F)c1cccc(Cl)c1Cl [Example 573]					> 50	> 10	1000 to 10000	−1	
CNCc1cccc2c1ncn2-c1ccc2ncnc(Nc3c(F)ccc(NS(=O)(=O)c4ccccc4Cl)c3F)c2n1 [Ex 215]	10 to 50	1 to 10	−9	1000 to 10000					
Nc1nc(-c2ccc3ncnc(Nc4c(F)ccc(NS(=O)(=O)c5ccccc5Cl)c4F)c3n2)cs1 [Example 94]	> 50	> 10	−5	1000 to 10000					
